Source: the supplement of paper PMC9663587

How the values were obtained:
Experiment in all cases: GRmax, 72 h; higher = less effect;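 note: breast cell lines in 384-well plates, nine doses across a 10^4 range, Dye Drop imaging of viable cells vs DMSO and time-zero plates, GR 0 means no net growth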
MCF10A (GM) = system: MCF10A (GM)
PDX1206 = system: PDX1206
HCC1500 = system: HCC1500
HCC1428 = system: HCC1428
MDAMB157 = system: MDAMB157

COc1ccc2c(c1)[C@]1(C[C@H]1c1ccc3c(/C=C/c4ccc(CN5C[C@@H](C)O[C@@H](C)C5)cc4)n[nH]c3c1)C(=O)N2
GRmax, 72 h (MCF10A (GM)): 0.0912 GR
GRmax, 72 h (PDX1206): 0.0507 GR

COc1cccc(OCCCN)c1-c1cc(Nc2cnc(C#N)cn2)n[nH]1
GRmax, 72 h (MCF10A (GM)): 0.322 GR
GRmax, 72 h (PDX1206): -0.497 GR

CC(=O)Nc1cccc(-n2c(=O)n(C3CC3)c(=O)c3c(Nc4ccc(I)cc4F)n(C)c(=O)c(C)c32)c1 (max 1 µM)
GRmax, 72 h (HCC1500): 0.344 GR
GRmax, 72 h (HCC1428): 0.815 GR
GRmax, 72 h (MDAMB157): 0.406 GR

CCc1cnn2c(NCc3ccc[n+]([O-])c3)cc(N3CCCC[C@H]3CCO)nc12 (max 1 µM)
GRmax, 72 h (HCC1500): -0.572 GR
GRmax, 72 h (HCC1428): -0.672 GR
GRmax, 72 h (MDAMB157): -0.911 GR

CC(=O)c1c(C)c2cnc(Nc3ccc(N4CCNCC4)cn3)nc2n(C2CCCC2)c1=O (max 3.162 µM)
GRmax, 72 h (HCC1500): 0.574 GR
GRmax, 72 h (HCC1428): 0.254 GR
GRmax, 72 h (MDAMB157): 0.975 GR

CCc1cncnc1N1CCN(Cc2nc3ccc(C(F)(F)F)cc3[nH]2)CC1 (max 10 µM)
GRmax, 72 h (HCC1500): 0.0495 GR
GRmax, 72 h (HCC1428): 0.864 GR
GRmax, 72 h (MDAMB157): 0.11 GR

CCCCOc1c(C(=O)c2c(F)cc(C)cc2F)c[nH]c2nncc1-2 (max 10 µM)
GRmax, 72 h (MCF10A (GM)): 0.106 GR
GRmax, 72 h (PDX1206): 0.123 GR

CCN1CCN(Cc2ccc(Nc3ncc(F)c(-c4cc(F)c5nc(C)n(C(C)C)c5c4)n3)nc2)CC1 (max 10 µM)
GRmax, 72 h (HCC1500): 0.22 GR
GRmax, 72 h (HCC1428): 0.0492 GR
GRmax, 72 h (MDAMB157): -0.604 GR

CNc1nc(-c2ccc3c(N)n[nH]c3c2)cc(N2C[C@@H](C(=O)NC3CCCCC3)CC[C@H]2C)n1 (max 10 µM)
GRmax, 72 h (MCF10A (GM)): 0.857 GR
GRmax, 72 h (PDX1206): 0.295 GR

Cc1nn(C)c(COc2ccc(N3CCN(S(=O)(=O)N(C)C)CC3)cc2)c1-c1cccc2c(CCCOc3cccc4ccccc34)c(C(=O)O)n(CCN3CCOCC3)c12 (max 10 µM)
GRmax, 72 h (HCC1500): 0.872 GR
GRmax, 72 h (HCC1428): 0.816 GR
GRmax, 72 h (MDAMB157): 0.788 GR

CN(C)CC[C@H](CSc1ccccc1)Nc1ccc(S(=O)(=O)NC(=O)c2ccc(N3CCN(Cc4ccccc4-c4ccc(Cl)cc4)CC3)cc2)cc1[N+](=O)[O-] [ABT-737] (max 10 µM)
GRmax, 72 h (HCC1500): -0.736 GR
GRmax, 72 h (HCC1428): 0.243 GR
GRmax, 72 h (MDAMB157): 0.201 GR

NC(=O)Nc1cc(-c2cccc(F)c2)sc1C(=O)N[C@H]1CCCNC1 [AZD7762] (max 10 µM)
GRmax, 72 h (HCC1500): -0.256 GR
GRmax, 72 h (HCC1428): -0.215 GR
GRmax, 72 h (MDAMB157): -0.786 GR

Cc1nc(NC(=O)N2CCC[C@H]2C(N)=O)sc1-c1ccnc(C(C)(C)C(F)(F)F)c1 [Alpelisib/BYL719] (max 10 µM)
GRmax, 72 h (HCC1500): 0.581 GR
GRmax, 72 h (HCC1428): 0.853 GR
GRmax, 72 h (MDAMB157): 0.492 GR

Cc1c(N)nc([C@H](CC(N)=O)NC[C@H](N)C(N)=O)nc1C(=O)N[C@H](C(=O)N[C@H](C)[C@@H](O)[C@H](C)C(=O)N[C@H](C(=O)NCCc1nc(-c2nc(C(=O)NCCC[S+](C)C)cs2)cs1)[C@@H](C)O)[C@@H](OC1OC(CO)C(O)C(O)C1OC1OC(CO)C(O)C(OC(N)=O)C1O)c1cnc[nH]1 (some centres not stated) [Bleomycin] (max 10 µM)
GRmax, 72 h (HCC1500; main component drawn): 0.174 GR
GRmax, 72 h (HCC1428; main component drawn): 0.217 GR
GRmax, 72 h (MDAMB157; main component drawn): -0.281 GR

Nc1cc(C(F)(F)F)c(-c2cc(N3CCOCC3)nc(N3CCOCC3)n2)cn1 [Buparlisib/NVP-BKM120] (max 10 µM)
GRmax, 72 h (HCC1500): -0.546 GR
GRmax, 72 h (HCC1428): -0.265 GR
GRmax, 72 h (MDAMB157): -0.641 GR

COc1cc2nccc(Oc3ccc(NC(=O)C4(C(=O)Nc5ccc(F)cc5)CC4)cc3)c2cc1OC [Cabozantinib] (max 10 µM)
GRmax, 72 h (HCC1500): 0.184 GR
GRmax, 72 h (HCC1428): 0.631 GR
GRmax, 72 h (MDAMB157): 0.149 GR

COc1cc2c(Oc3ccc4[nH]c(C)cc4c3F)ncnc2cc1OCCCN1CCCC1 [Cediranib/AZD2171] (max 10 µM)
GRmax, 72 h (HCC1500): -0.808 GR
GRmax, 72 h (HCC1428): -0.55 GR
GRmax, 72 h (MDAMB157): -0.585 GR

Cc1cc(Nc2ncc(Cl)c(Nc3ccccc3S(=O)(=O)C(C)C)n2)c(OC(C)C)cc1C1CCNCC1 [Ceritinib/LDK378] (max 10 µM)
GRmax, 72 h (HCC1500): -0.954 GR
GRmax, 72 h (HCC1428): -0.867 GR
GRmax, 72 h (MDAMB157): -0.926 GR

N.N.[Cl][Pt][Cl] [Cisplatin] (max 10 µM)
GRmax, 72 h (HCC1500): 0.207 GR
GRmax, 72 h (HCC1428): 0.122 GR
GRmax, 72 h (MDAMB157): 0.189 GR

Cc1nc(Nc2ncc(C(=O)Nc3c(C)cccc3Cl)s2)cc(N2CCN(CCO)CC2)n1 [Dasatinib] (max 10 µM)
GRmax, 72 h (HCC1500): -0.159 GR
GRmax, 72 h (HCC1428): 0.578 GR
GRmax, 72 h (MDAMB157): 0.0683 GR

COc1cccc2c1C(=O)c1c(O)c3c(c(O)c1C2=O)C[C@@](O)(C(=O)CO)C[C@@H]3O[C@H]1C[C@H](N)[C@H](O)[C@H](C)O1 [Doxorubicin] (max 3.162 µM)
GRmax, 72 h (HCC1500): -0.713 GR
GRmax, 72 h (HCC1428): -0.74 GR
GRmax, 72 h (MDAMB157): -0.777 GR

CO[C@H]1C[C@@H]2CC[C@@H](C)[C@@](O)(O2)C(=O)C(=O)N2CCCC[C@H]2C(=O)O[C@H]([C@H](C)C[C@@H]2CC[C@@H](OCCO)[C@H](OC)C2)CC(=O)[C@H](C)/C=C(\C)[C@@H](O)[C@@H](OC)C(=O)[C@H](C)C[C@H](C)/C=C/C=C/C=C/1C [Everolimus] (max 10 µM)
GRmax, 72 h (HCC1500): -0.31 GR
GRmax, 72 h (HCC1428): 0.346 GR
GRmax, 72 h (MDAMB157): 0.481 GR

CC(C)n1nc(-c2ccc3oc(N)nc3c2)c2c(N)ncnc21 [INK128/MLN0128] (max 3.162 µM)
GRmax, 72 h (HCC1500): -0.469 GR
GRmax, 72 h (HCC1428): -0.0001 GR
GRmax, 72 h (MDAMB157): -0.0331 GR

CC(C)NC[C@@H](C(=O)N1CCN(c2ncnc3c2[C@H](C)C[C@H]3O)CC1)c1ccc(Cl)cc1 [Ipatasertib/GDC0068] (max 10 µM)
GRmax, 72 h (HCC1500): 1.08 GR
GRmax, 72 h (HCC1428): 0.991 GR
GRmax, 72 h (MDAMB157): 0.596 GR

CCNC(=O)c1noc(-c2cc(C(C)C)c(O)cc2O)c1-c1ccc(CN2CCOCC2)cc1 [Luminespib/NVP-AUY922] (max 1 µM)
GRmax, 72 h (HCC1500): -0.224 GR
GRmax, 72 h (HCC1428): -0.0043 GR
GRmax, 72 h (MDAMB157): -0.049 GR

CCOc1cc2ncc(C#N)c(Nc3ccc(OCc4ccccn4)c(Cl)c3)c2cc1NC(=O)/C=C/CN(C)C [Neratinib/HKI272] (max 3.162 µM)
GRmax, 72 h (HCC1500): -0.287 GR
GRmax, 72 h (HCC1428): -0.0412 GR
GRmax, 72 h (MDAMB157): 0.117 GR

O=C(c1cc(Cc2n[nH]c(=O)c3ccccc23)ccc1F)N1CCN(C(=O)C2CC2)CC1 [Olaparib/AZD2281] (max 10 µM)
GRmax, 72 h (HCC1500): 0.274 GR
GRmax, 72 h (HCC1428): 0.118 GR
GRmax, 72 h (MDAMB157): 0.158 GR

CC(=O)O[C@H]1C(=O)[C@@]2(C)[C@H]([C@H](OC(=O)c3ccccc3)[C@]3(O)C[C@H](OC(=O)[C@H](O)[C@@H](NC(=O)c4ccccc4)c4ccccc4)C(C)=C1C3(C)C)[C@]1(OC(C)=O)CO[C@@H]1C[C@@H]2O [Paclitaxel] (max 1 µM)
GRmax, 72 h (HCC1500): -0.0589 GR
GRmax, 72 h (HCC1428): 0.0645 GR
GRmax, 72 h (MDAMB157): -0.67 GR

CS(=O)(=O)N1CCN(Cc2cc3nc(-c4cccc5[nH]ncc45)nc(N4CCOCC4)c3s2)CC1 [Pictilisib/GDC0941] (max 10 µM)
GRmax, 72 h (HCC1500): -0.132 GR
GRmax, 72 h (HCC1428): 0.192 GR
GRmax, 72 h (MDAMB157): 0.187 GR

CN1CCN(CCOc2cc(OC3CCOCC3)c3c(Nc4c(Cl)ccc5c4OCO5)ncnc3c2)CC1 [Saracatinib/AZD0530] (max 10 µM)
GRmax, 72 h (HCC1500): -0.197 GR
GRmax, 72 h (HCC1428): 0.669 GR
GRmax, 72 h (MDAMB157): 0.355 GR

Cc1cc(C(C)Nc2ccccc2)c2nc(N3CCOCC3)cc(=O)n2c1 (configuration not stated) [TGX221] (max 10 µM)
GRmax, 72 h (HCC1500): 0.503 GR
GRmax, 72 h (HCC1428): 0.769 GR
GRmax, 72 h (MDAMB157): 0.824 GR

Cc1nc(-c2cn3c(n2)-c2ccc(-c4cnn(C(C)(C)C(N)=O)c4)cc2OCC3)n(C(C)C)n1 [Taselisib/GDC0032] (max 10 µM)
GRmax, 72 h (HCC1500): -0.233 GR
GRmax, 72 h (HCC1428): 0.173 GR
GRmax, 72 h (MDAMB157): 0.211 GR

O=C1NC(=O)[C@@H](c2cn3c4c(cccc24)CCC3)[C@@H]1c1c[nH]c2ccccc12 [Tivantinib/ARQ197] (max 10 µM)
GRmax, 72 h (HCC1500): -0.33 GR
GRmax, 72 h (HCC1428): 0.0341 GR
GRmax, 72 h (MDAMB157): -0.482 GR

CC[C@@]1(O)C(=O)OCc2c1cc1n(c2=O)Cc2cc3c(CN(C)C)c(O)ccc3nc2-1 [Topotecan] (max 10 µM)
GRmax, 72 h (HCC1500): -0.801 GR
GRmax, 72 h (HCC1428): -0.376 GR
GRmax, 72 h (MDAMB157): -0.833 GR

Nc1ccc(-c2ccc3ncc4ccc(=O)n(-c5cccc(C(F)(F)F)c5)c4c3c2)cn1 [Torin2] (max 1 µM)
GRmax, 72 h (HCC1500): -0.497 GR
GRmax, 72 h (HCC1428): -0.0145 GR
GRmax, 72 h (MDAMB157): -0.216 GR

CC[C@@H]1C(=O)N(C)c2cnc(Nc3ccc(C(=O)N[C@H]4CC[C@H](N5CCN(CC6CC6)CC5)CC4)cc3OC)nc2N1C(C)C [Volasertib/BI6727] (max 1 µM)
GRmax, 72 h (HCC1500): 0.286 GR
GRmax, 72 h (HCC1428): -0.0388 GR
GRmax, 72 h (MDAMB157): -0.664 GR

O=C(CCCCCCC(=O)Nc1ccccc1)NO [Vorinostat] (max 10 µM)
GRmax, 72 h (HCC1500): -0.596 GR
GRmax, 72 h (HCC1428): -0.479 GR
GRmax, 72 h (MDAMB157): -0.413 GR
